A short description of series [1]: In vitro mouse plasma stability. It is filed as in vitro ADME.
The target in series [2] is T1, human NAAA (Homo sapiens, UniProt Q02083).
T1 sequence (Q02083 126-359 limits assumed): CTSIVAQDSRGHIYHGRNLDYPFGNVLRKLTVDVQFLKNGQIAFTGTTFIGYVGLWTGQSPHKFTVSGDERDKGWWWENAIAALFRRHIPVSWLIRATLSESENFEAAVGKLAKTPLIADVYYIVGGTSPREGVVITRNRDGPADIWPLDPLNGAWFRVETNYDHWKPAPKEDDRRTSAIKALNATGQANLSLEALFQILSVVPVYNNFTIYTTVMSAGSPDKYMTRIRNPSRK
T1 sequence (Q02083 29-125 limits assumed): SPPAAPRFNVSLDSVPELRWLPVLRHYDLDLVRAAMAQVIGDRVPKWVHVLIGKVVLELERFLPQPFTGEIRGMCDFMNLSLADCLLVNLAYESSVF
As to the kind of experiment: Fluorogenic h-NAAA assay. It counts as biochemical.

In another series the test system is rat-NAAA (r-NAAA). As to conditions: read-out: r-NAAA IC50; ref 19a, 19c, 19d, 19f; cited from earlier work.
Series [3] in a line: In vitro rat plasma stability. It counts as in vitro ADME.
A further series addresses T2, human FAAH (Homo sapiens, UniProt O00519).
T2 sequence (O00519 1-579): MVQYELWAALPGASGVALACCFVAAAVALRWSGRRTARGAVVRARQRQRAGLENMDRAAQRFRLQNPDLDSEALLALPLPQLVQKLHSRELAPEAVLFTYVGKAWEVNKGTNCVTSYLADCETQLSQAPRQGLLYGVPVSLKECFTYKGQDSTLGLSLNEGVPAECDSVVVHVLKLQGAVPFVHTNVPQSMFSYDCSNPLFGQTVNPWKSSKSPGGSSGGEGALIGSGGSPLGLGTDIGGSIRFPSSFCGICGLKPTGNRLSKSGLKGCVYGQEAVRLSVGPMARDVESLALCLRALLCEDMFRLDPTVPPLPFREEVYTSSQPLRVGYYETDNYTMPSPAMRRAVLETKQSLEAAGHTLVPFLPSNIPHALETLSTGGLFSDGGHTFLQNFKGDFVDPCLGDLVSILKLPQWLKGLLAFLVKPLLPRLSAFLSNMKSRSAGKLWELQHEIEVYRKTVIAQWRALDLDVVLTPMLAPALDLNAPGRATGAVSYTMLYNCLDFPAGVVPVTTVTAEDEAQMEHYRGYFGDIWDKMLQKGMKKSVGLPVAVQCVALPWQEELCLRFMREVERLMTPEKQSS
Description: h-FAAH inhibition. It counts as biochemical. As to conditions: read-out: h–FAAH (% Inhib).

Series [4] concerns the target T3, human NAAA (Homo sapiens, UniProt Q02083).
T3 sequence (Q02083 29-359): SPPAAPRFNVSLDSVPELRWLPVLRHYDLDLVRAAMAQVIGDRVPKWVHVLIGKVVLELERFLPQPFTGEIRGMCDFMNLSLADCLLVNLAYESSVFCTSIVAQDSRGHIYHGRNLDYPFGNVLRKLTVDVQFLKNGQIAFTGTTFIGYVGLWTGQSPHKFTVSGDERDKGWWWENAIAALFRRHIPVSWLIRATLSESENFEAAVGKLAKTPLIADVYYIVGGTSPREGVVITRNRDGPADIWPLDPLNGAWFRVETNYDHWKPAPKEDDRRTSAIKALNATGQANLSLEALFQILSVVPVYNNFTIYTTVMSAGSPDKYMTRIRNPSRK
Description: h-NAAA inhibition, UPLC-MS-based assay. As to conditions: for IC50: h–NAAA IC50 (μM) ± SD, LC/MS method, mean of three or more determinations. It is filed as biochemical.

The next series concerns the target T4, human AC (Homo sapiens, UniProt Q13510).
T4 sequence (Q13510 22-395): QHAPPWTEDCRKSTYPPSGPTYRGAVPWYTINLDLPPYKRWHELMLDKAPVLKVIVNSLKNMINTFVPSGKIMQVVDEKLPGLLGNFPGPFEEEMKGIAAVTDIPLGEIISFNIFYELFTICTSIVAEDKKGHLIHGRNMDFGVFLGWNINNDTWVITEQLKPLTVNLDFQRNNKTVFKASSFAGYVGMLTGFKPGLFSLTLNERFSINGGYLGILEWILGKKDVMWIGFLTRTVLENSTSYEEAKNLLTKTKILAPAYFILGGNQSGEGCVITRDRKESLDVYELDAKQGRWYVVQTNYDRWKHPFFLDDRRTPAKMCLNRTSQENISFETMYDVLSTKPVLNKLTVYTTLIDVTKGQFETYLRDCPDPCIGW
As to the kind of experiment: h-AC inhibition, UPLC-MS-based assay. It is filed as biochemical. Conditions: for IC50: h–AC IC50 (μM) ± SD, LC/MS method, mean of three or more determinations.

A short description of series [5]: Plasma pharmacokinetics in rats after IV or oral dosing. It counts as in vivo. As to conditions: rat.

Molecules are shown by their SMILES.

In the case of `O=C(CCc1ccccc1)N[C@H]1COC1=O` [Compound 1, (S)–N–(2–oxo–3–oxetanyl)–3–phenylpropionamide, reference compound], in series [1], the half-life – broadly, the time in which the quantity being followed falls by half – at 2 µM was less than 0.0167 h. Besides, the IC50 (commonly the concentration that inhibits the measured activity by half) against human NAAA [2] was 1.29 µM; with rat-NAAA (r-NAAA), 0.42 µM.

With `C[C@@H]1OC(=O)[C@@H]1NC(=O)OCCCCCc1ccccc1` [Compound 2, 5–phenylpentyl N–[(2S,3R)–2–methyl–4–oxo–oxetan–3–yl]carbamate, reference compound], the IC50 was 0.047 ± 0.005 µM at human NAAA [2] and 0.05 µM in the series with rat-NAAA (r-NAAA).

`O=C(CCc1ccccc1)N[C@H]1CNC1=O` [Compound 11a, 3–Phenyl–N–[(S)–2-oxoazetidin–3–yl]–propanamide] displayed a half-life at […] in series [3] greater than 2 h. Also, the half-life at 2 µM in series [1] was greater than 2 h.

With `O=C(CCCc1ccccc1)N[C@H]1CNC1=O` [Compound 11b, N–[(S)–2-Oxoazetidin–3–yl]–4–phenyl–butanamide], on human NAAA [2], the IC50 was 73.4 ± 10.7 µM.

Consider `O=C(CCCCc1ccccc1)N[C@H]1CNC1=O` [Compound 11c, 5–Phenyl–N–[(S)–2–oxoazetidin–3–yl]–pentanamide], for which, at human NAAA [2], the IC50 is 27.2 ± 1.89 µM.

The compound `O=C(CCCCCc1ccccc1)N[C@H]1CNC1=O` [Compound 11d, N–[(S)–2–Oxoazetidin–3–yl]–6–phenyl–hexanamide] came in with an IC50 against human NAAA [2] of 12.1 ± 2.18 µM.

`O=C(CCCCCCc1ccccc1)N[C@H]1CNC1=O` [Compound 11e, 7–Phenyl–N–[(S)–2–oxoazetidin–3–yl]–heptanamide] returned an IC50 at human NAAA [2] of 0.6 ± 0.17 µM.

Compound `CCCCCCC(=O)N[C@H]1CNC1=O` [Compound 11f, N–[(S)–2–Oxoazetidin–3–yl]–heptanamide] came in with an IC50 at human NAAA [2] of 27 ± 6.15 µM. In addition, the “drop in potency (h-NAAA) compared to 11e” value at human NAAA [2] (fluorogenic assay) is greater than 40 fold.

With `CCCCCCCC(=O)N[C@H]1CNC1=O` [Compound 11g, N–[(S)–2–Oxoazetidin–3–yl]–octanamide], the IC50 against human NAAA [2] stood at 1.91 ± 0.28 µM.

`CCCCCCCCC(=O)N[C@H]1CNC1=O` [Compound 11h, N–[(S)–2–Oxoazetidin–3–yl]–nonanamide] registered a half-life at […] in series [3] greater than 2 h. On human FAAH, the inhibition at 100 µM is less than 10%. Besides, on human NAAA [4], the IC50 was 0.13 ± 0.03 µM. The same compound registered a half-life at 2 µM in series [1] of 1.72 h. Besides, the “selectivity for NAAA vs. AC” value at human AC (h-AC IC50 / h-NAAA IC50, LC/MS assays) was “ca. 19 fold”. Inhibition at human AC was half-maximal at 2.53 ± 0.06 µM (IC50). In series [5] (iv, 3 mg/kg), the area under the curve (AUC) (in general, the area under the concentration-time curve, a measure of exposure) was found to be 111 ng·h/mL; the Cmax (in general, the highest concentration seen after dosing) amounted to 397 ng/mL; the Tmax (commonly the time at which the peak concentration occurs) stood at 4.8 min; the clearance is 702 mL/min/kg. In addition, in series [5] (po, 10 mg/kg), the AUC was 247 ng·h/mL and the highest level (Cmax) was 570 ng/mL.

In the case of `CCCCC/C=C/CC(=O)N[C@H]1CNC1=O` [Compound 11i, (E)–N–[(S)–2–Oxoazetidin–3–yl]–non–3–enamide], the IC50 against human NAAA [2] was found to be 3.09 ± 0.5 µM. The “loss/drop in potency (h-NAAA) compared to 11h” value (from here on “loss/drop … compared to 11h”) at human NAAA [2] (fluorogenic assay) came out at 10 fold.

`CCCCC/C=C\CC(=O)N[C@H]1CNC1=O` [Compound 11j, (Z)–N–[(S)–2–Oxoazetidin–3–yl]–non–3–enamide] came in with an IC50 at human NAAA [2] of 3.9 ± 0.86 µM. Moreover, at human NAAA [2] (fluorogenic assay), the “loss/drop … compared to 11h” value is given as 10 fold.

As for `CCCCc1ccc(C(=O)N[C@H]2CNC2=O)cc1` [Compound 11k, 4–Butyl–N–[(S)–2–oxoazetidin–3–yl]–benzamide], the IC50 at human NAAA [2] turned out to be 13.8 ± 3.41 µM.

As for `CCCCCCCCCCC(=O)N[C@H]1CNC1=O` [Compound 11p, N–[(S)–2–Oxoazetidin–3–yl]–undecanamide], the inhibition at 100 µM at human FAAH is less than 10%. The “increase in potency toward h–NAAA compared to 11h” value on human NAAA [4] (LC/MS assay) is recorded as “ca. 2 fold”. Also, the figures for the IC50 against human NAAA [4] and on human AC were 0.056 ± 0.01 µM and 0.33 ± 0.1 µM, respectively. Also, the “increase in potency toward h–AC compared to 11h” value on human AC (LC/MS assay) is reported as “ca. 7 fold”.

With `CCCCCCCCC(=O)N[C@@H]1CNC1=O` [Compound 12h, N–[(R)–2–Oxoazetidin–3–yl]–nonanamide], the inhibition at 100 µM at human FAAH was less than 10%. In addition, the IC50 is 45.5 µM against human NAAA [4], 27.8 µM at human AC and 74.5 ± 9.08 µM against human NAAA [2]. The “loss/drop … compared to 11h” value on human NAAA [2] (fluorogenic assay) was greater than 200 fold.

In turn, `CCCCCCCNC(=O)N[C@H]1CNC1=O` [Compound 33, 1–Heptyl–3–[(S)–2–oxoazetidin–3–yl]–urea] gave an IC50 on human NAAA [2] of 5.76 ± 0.9 µM.

Values taken from PMC4224963 (ChemMedChem, 2014).
